Where two headings read alike, the source gives them in different places.
Legend:
[1] = tested on: Staphylococcus hominis DSM 20328; experiment: Determination of the Minimum Inhibitory Concentration (MIC value) in microtitre plates, Staphylococcus hominis; type: cell-based; details: Staphylococcus hominis, DSM20328, 48 h, read-out: MIC [μg/ml] SH
Protocol: (§1) Determination of the Minimum Inhibitory Concentration (MIC Value) in Microtitre Plates
Casein-soybean flour-peptone broth for preparation of pre-cultures of test bacteria and yeast.
Staphylococcus hominis DSM 20328 […]
(§2) The test substances are pre-dissolved in dimethyl sulfoxide (DMSO) and tested in a dilution series of 1:2.
(§3) The bacteria are cultured overnight in CASO broth and washed off using 10 ml of 0.85% sodium chloride solution (+0.1% Triton X-100).
(§4) All the test organisms are adjusted to an organism count of 1-5×10^6 CFU/ml using 0.85% sodium chloride solution.
(§5) The test substances are pre-pipetted into microtitre plates in amounts of 8 μl per well.
(§6) Pre-diluted test organism suspensions are diluted 1:100 in CASO broth.
(§7) The test batches are incubated for 48 hours at 37° C.
(§8) After incubation, the growth is determined on the basis of the turbidity of the test batches (optical density) at 620 nm in a microplate reader.
(§9) The minimum inhibitory concentration (MIC value) is the concentration of substance at which there is found (compared to the growth of the control) an appreciable inhibition of growth (≦20% growth) of the test organisms.
(§10) One microtitre plate is used for each test organism and substance concentration.
(§11) All the substances are tested in duplicate.

[2] = tested on: Escherichia coli NCTC 8196; experiment: Determination of the Minimum Inhibitory Concentration (MIC value) in microtitre plates, Escherichia coli; type: cell-based; details: for MIC: Escherichia coli, NCTC8196, 48 h, read-out: MIC [μg/ml] EC
Protocol: as §1
Casein-soybean flour-peptone broth for preparation of pre-cultures of test bacteria and yeast. […]
Escherichia coli NCTC 8196
as §2, §3, §4, §5, §6, §7, §8, §9, §10, §11

[3] = Staphylococcus hominis DSM 20328, CASO broth, 48 hours at 37° C., MIC = ≦20% growth (optical density at 620 nm)
[4] = Escherichia coli NCTC 8196, CASO broth, 48 hours at 37° C., MIC = ≦20% growth (optical density at 620 nm)

SMILES | MIC [1, 3] [µg/mL] | MIC [2, 4] [µg/mL] | MIC [μg/ml] EC [2, 4] [µg/mL] | MIC [1] [µg/mL] | MIC [2] [µg/mL]
CCCCCCCCCCCCOc1ccc(CN2CCCCC2)cc1OC [Compound of formula (3)] | 3.75 | > 120 |  |  | 
CCCCCCCCCCCCOc1ccc(CN2CCCC2)cc1OC [Compound of formula (4)] |  |  | 30 |  | 
CCCCCCOc1ccc(CN2CCCCC2)cc1OC [Compound of formula (5)] | > 120 | > 120 |  |  | 
CCCCCCOc1ccc(CN2CCCC2)cc1OC [Compound of formula (6)] | > 120 | > 120 |  |  | 
CCCCCCCCCCCCOc1ccc(CN(C)CCc2ccccn2)cc1OC [Compound of formula (7)] | 60 | > 120 |  |  | 
CCCCCCCCCCCCOc1ccc(CN2CCOCC2)cc1OC [Compound of formula (8)] | > 120 | > 120 |  |  | 
CCCCCCCCCCCCOc1ccc(CN(C)CCCC)cc1OC [Compound of formula (9)] | 15 | > 120 |  |  | 
CCCCCCCCCCCCOc1ccc(CN2CCCCCC2)cc1OC [Compound of formula (10)] | 3.75 | > 120 |  |  | 
CCCCCCCCCCCCOc1ccc(CN(C(C)C)C(C)C)cc1OC [Compound of formula (11)] | > 120 | > 120 |  |  | 
CCCCCCCCCCCCOc1ccc(CN2CCN(C)CC2)cc1OC [Compound of formula (12)] | 3.75 | 120 |  |  | 
CCCCCCCCCCCCOc1ccc(CN(CC)CC)cc1OC [Compound of formula (13)] | 3.75 | > 120 |  |  | 
CCCCCCCCCCCCOc1ccc(CN2CCN(C(C)=O)CC2)cc1OC [Compound of formula (14)] | > 120 | > 120 |  |  | 
CCCCCCCCCCCCOc1ccc(CN(C)Cc2ccccc2)cc1OC [Compound of formula (15)] | 15 | > 120 |  |  | 
CCCCCCCCCCCCOc1ccc(CN(C)CCCCCC)cc1OC [Compound of formula (16)] | 120 | > 120 |  |  | 
CCCCCCCCCCCCOc1ccc(CN2CCN(CC)CC2)cc1OC [Compound of formula (17)] | 7.5 | > 120 |  |  | 
CCCCCCCCCCCCOc1ccc(CN2CCCC2)cc1OC [Compound of formula (18)] | 3.75 | 15 |  |  | 
CCCCCCCCCCCCOc1ccc(CN(C)CCCCCCCCCCCC)cc1OC [Compound of formula (19)] | > 120 | > 120 |  |  | 
CCCCCCCCCCCCOc1ccc(CN(C)C)cc1OC [Compound of formula (20)] | 7.5 | 15 |  |  | 
CCCCCCCCCCCCOc1ccc(CN2CCNCC2)cc1OC [Compound of formula (21)] | > 120 | > 120 |  |  | 
CCCCCCCCCCCCOc1ccc(CN2CCN(c3cccc(OC)c3)CC2)cc1OC [Compound of formula (22)] | > 120 | > 120 |  |  | 
CCCCCCOc1ccc(CN(C)CCc2ccccn2)cc1OC [Compound of formula (23)] | 60 | > 120 |  |  | 
CCCCCCOc1ccc(CN2CCOCC2)cc1OC [Compound of formula (24)] | > 120 | > 120 |  |  | 

SMILES | MIC [1, 3] [µg/mL] | MIC [2, 4] [µg/mL] | MIC [μg/ml] EC [2, 4] [µg/mL] | MIC [1] [µg/mL] | MIC [2] [µg/mL]
CCCCCCOc1ccc(CN(C)CCCC)cc1OC [Compound of formula (25)] | > 120 | > 120 |  |  | 
CCCCCCOc1ccc(CN2CCCCCC2)cc1OC [Compound of formula (26)] | > 120 | > 120 |  |  | 
CCCCCCOc1ccc(CN(C(C)C)C(C)C)cc1OC [Compound of formula (27)] | > 120 | > 120 |  |  | 
CCCCCCOc1ccc(CN2CCN(C)CC2)cc1OC [Compound of formula (28)] |  |  |  | > 120 | > 120
CCCCCCOc1ccc(CN(CC)CC)cc1OC [Compound of formula (29)] | > 120 | > 120 |  |  | 
CCCCCCOc1ccc(CN2CCN(C(C)=O)CC2)cc1OC [Compound of formula (30)] | > 120 | > 120 |  |  | 
CCCCCCOc1ccc(CN(C)Cc2ccccc2)cc1OC [Compound of formula (31)] | > 120 | > 120 |  |  | 
CCCCCCOc1ccc(CN(C)CCCCCC)cc1OC [Compound of formula (32)] | 60 | 7.5 |  |  | 
CCCCCCOc1ccc(CN2CCN(CC)CC2)cc1OC [Compound of formula (33)] |  |  |  | > 120 | > 120
CCCCCCCCCCCCN(C)Cc1ccc(OCCCCCC)c(OC)c1 [Compound of formula (35)] | 15 | > 120 |  |  | 
CCCCCCOc1ccc(CN(C)C)cc1OC [Compound of formula (36)] | > 120 | > 120 |  |  | 
CCCCCCOc1ccc(CN2CCNCC2)cc1OC [Compound of formula (37)] |  |  |  | > 120 | > 120
CCCCCCOc1ccc(CN2CCN(c3cccc(OC)c3)CC2)cc1OC [Compound of formula (38)] | > 120 | > 120 |  |  | 
CCCCCCCCOc1ccc(CN(C)CCc2ccccn2)cc1OC [Compound of formula (39)] | 120 | > 120 |  |  | 
CCCCCCCCOc1ccc(CN2CCOCC2)cc1OC [Compound of formula (40)] | > 120 | > 120 |  |  | 
CCCCCCCCOc1ccc(CN(C)CCCC)cc1OC [Compound of formula (41)] | 15 | 15 |  |  | 
CCCCCCCCOc1ccc(CN2CCCCCC2)cc1OC [Compound of formula (42)] | 15 | 15 |  |  | 
CCCCCCCCOc1ccc(CN(C(C)C)C(C)C)cc1OC [Compound of formula (43)] | > 120 | > 120 |  |  | 
CCCCCCCCOc1ccc(CN2CCN(C)CC2)cc1OC [Compound of formula (44)] | 120 | 120 |  |  | 
CCCCCCCCOc1ccc(CN(CC)CC)cc1OC [Compound of formula (45)] | 120 | 120 |  |  | 
CCCCCCCCOc1ccc(CN2CCN(C(C)=O)CC2)cc1OC [Compound of formula (46)] | > 120 | 120 |  |  | 
CCCCCCCCOc1ccc(CN(C)Cc2ccccc2)cc1OC [Compound of formula (47)] | > 120 | > 120 |  |  | 

SMILES | MIC [1, 3] [µg/mL] | MIC [2, 4] [µg/mL] | MIC [μg/ml] EC [2, 4] [µg/mL] | MIC [1] [µg/mL] | MIC [2] [µg/mL]
CCCCCCCCOc1ccc(CN(C)CCCCCC)cc1OC [Compound of formula (48)] | 120 | > 120 |  |  | 
CCCCCCCCOc1ccc(CN2CCN(CC)CC2)cc1OC [Compound of formula (49)] | 60 | 120 |  |  | 
CCCCCCCCOc1ccc(CN2CCCC2)cc1OC [Compound of formula (50)] | 60 | 60 |  |  | 
CCCCCCCCCCCCN(C)Cc1ccc(OCCCCCCCC)c(OC)c1 [Compound of formula (51)] | > 120 | > 120 |  |  | 
CCCCCCCCOc1ccc(CN(C)C)cc1OC [Compound of formula (52)] | 120 | 120 |  |  | 
CCCCCCCCOc1ccc(CN2CCNCC2)cc1OC [Compound of formula (53)] |  |  |  | > 120 | > 120
CCCCCCCCOc1ccc(CN2CCCCC2)cc1OC [Compound of formula (54)] | 60 | 30 |  |  | 
CCCOc1ccc(CN(C)CCc2ccccn2)cc1OC [Compound of formula (55)] | > 120 | > 120 |  |  | 
CCCOc1ccc(CN2CCOCC2)cc1OC [Compound of formula (56)] | 120 | > 120 |  |  | 
CCCCN(C)Cc1ccc(OCCC)c(OC)c1 [Compound of formula (57)] | > 120 | 120 |  |  | 
CCCOc1ccc(CN2CCCCCC2)cc1OC [Compound of formula (58)] | 120 | > 120 |  |  | 
CCCOc1ccc(CN(C(C)C)C(C)C)cc1OC [Compound of formula (59)] | > 120 | > 120 |  |  | 
CCCOc1ccc(CN2CCN(C)CC2)cc1OC [Compound of formula (60)] |  |  |  | > 120 | > 120
CCCOc1ccc(CN(CC)CC)cc1OC [Compound of formula (61)] | > 120 | > 120 |  |  | 
CCCOc1ccc(CN2CCN(C(C)=O)CC2)cc1OC [Compound of formula (62)] | > 120 | > 120 |  |  | 
CCCOc1ccc(CN(C)Cc2ccccc2)cc1OC [Compound of formula (63)] | > 120 | > 120 |  |  | 
CCCCCCN(C)Cc1ccc(OCCC)c(OC)c1 [Compound of formula (64)] | > 120 | > 120 |  |  | 
CCCOc1ccc(CN2CCN(CC)CC2)cc1OC [Compound of formula (65)] |  |  |  | > 120 | > 120
CCCOc1ccc(CN2CCCC2)cc1OC [Compound of formula (66)] | > 120 | > 120 |  |  | 
CCCCCCCCCCCCN(C)Cc1ccc(OCCC)c(OC)c1 [Compound of formula (67)] | 60 | > 120 |  |  | 

From patent publication US20040006061A1, “Alkoxybenzylamine” (priority 2001, published 2004)
